The subject of series [1] is HEK293. Briefly: Induction of autophagy in HEK293 cells assessed as decrease in p62 protein level incubated for 4 hrs by Western blotting analysis. Type of series: functional, cell-based. As to conditions: Homo sapiens, dose 0.5-10 µM.
Series [2] concerns MCF7. The series is described as follows: Induction of autophagic flux in wild type human MCF7 cells assessed as increase in LC3-I protein level at 10 uM incubated for 4 hrs in the presence of bafilomycin A1 by Western blotting analysis. The format is functional, cell-based. On the technique in general: A western blot detects proteins with antibodies after separation by electrophoresis.

The subject of series [3] is MCF7. The series is described as follows: Induction of autophagy in human […] cells assessed as decrease in p62 protein level incubated for 4 hrs by Western blotting analysis. Type of series: functional, cell-based. As to conditions: dose 0.5-10 µM.
Series [4] deals with MCF7. Briefly: Cytotoxicity against human MCF7 cells assessed as reduction in cell viability at 0.3125 to 40 uM incubated for 24 hrs by MTT assay. Conditions: dose 0.3125-40 µM. Type of series: functional, cell-based. (Tetrazolium dyes change colour on reduction, which living cells bring about.)
The nature of series [5]: Cytotoxicity against human […] cells assessed as reduction in cell viability at 0.3125 to 40 uM incubated for 24 hrs by MTT assay. The format is toxicity, cell-based. Conditions: dose 0.3125-40 µM.
Series [6] deals with MCF7. The series is described as follows: Induction of autophagy in wild type human MCF7 cells assessed as increase in LC3-II level at 20 uM incubated for 4 hrs by Western blotting analysis. Type of series: functional, cell-based.
Series [7] relates to MCF7. The series is described as follows: Induction of autophagy in wild type human MCF7 cells assessed as increase in LC3-II level at 10 uM incubated for 1 to 4 hrs by Western blotting analysis. The format is functional, cell-based. Conditions: time 1-4 hrs.
Series [8] has as its system MCF7. The series is described as follows: Induction of autophagy in human MCF7 cells assessed as p62/GAPDH ratio (reference value: 0.96). The format is functional.
Series [9] relates to MCF7. Briefly: Induction of autophagy in wild type human MCF7 cells assessed as decrease in p62 level at 10 uM incubated for 1 to 4 hrs by Western blotting analysis. The format is functional, cell-based. As to conditions: time 1-4 hrs.
The subject of series [10] is MCF7. The series is described as follows: Induction of autophagy in human […] cells increase in LC3-II protein level incubated for 4 hrs by Western blotting analysis. The format is functional, cell-based. As to conditions: dose 0.5-10 µM.
In series [11] the test system is MCF7. The series is described as follows: Induction of autophagy in pEGFP-LC3-labeled human MCF7 cells assessed as formation of autophagosome by measuring the appearance of clustered granules near the nucleus at 10 uM by laser confocal microscopic imaging analysis. Type of series: functional, cell-based. As to conditions: time 1-8 hrs.
Series [12] has as its system MCF7. The series is described as follows: Induction of autophagy in human MCF7 cells expressing pEGFP-LC3 assessed as increase in LC3 puncta at 20 uM incubated for 4 hrs by fluorescence microscopic analysis. The format is functional, cell-based.
The next series concerns L02. Briefly: Cytotoxicity against human LO2 cells assessed as reduction in cell viability at 0.3125 to 40 uM incubated for 24 hrs by MTT assay. Type of series: toxicity, cell-based. As to conditions: l02, 24 h, dose 0.3125-40 µM.
Series [13] relates to MCF7. The series is described as follows: Induction of autophagy in wild type human MCF7 cells assessed as decrease in LC3-I level at 20 uM incubated for 4 hrs by Western blotting analysis. Type of series: functional, cell-based.
Series [14] relates to MCF7. Briefly: Induction of autophagic flux in wild type human MCF7 cells assessed as increase in LC3-II protein level at 10 uM incubated for 4 hrs in the presence of bafilomycin A1 by Western blotting analysis. Type of series: functional, cell-based.
Series [15] concerns MCF7. The series is described as follows: Induction of autophagy in human MCF7 cells assessed as upregulation of LC3-II to LC3-I ratio at 20 uM incubated for 4 hrs by Western blotting analysis. Type of series: functional, cell-based.
The subject of series [16] is MCF7. Briefly: Induction of autophagy in human MCF7 cells assessed as decrease in p62 level at 20 uM incubated for 4 hrs by Western blotting analysis. Type of series: functional, cell-based.
In series [17] the test system is MCF7. The series is described as follows: Induction of autophagy in human MCF7 cells assessed as increase in LC3-II/LC3-1 rate at 20 uM incubated for 4 hrs by Western blotting analysis. Type of series: functional, cell-based.
Another series deals with BEAS-2B. The series is described as follows: Cytotoxicity against human BEAS-2B cells assessed as reduction in cell viability at 0.3125 to 40 uM incubated for 24 hrs by MTT assay. Type of series: toxicity, cell-based. As to conditions: dose 0.3125-40 µM.
Series [18] has as its system MCF7. The series is described as follows: Induction of autophagy in wild type human MCF7 cells assessed as increase in LC3-II level at 10 uM incubated for 6 to 8 hrs by Western blotting analysis. Type of series: functional, cell-based. Conditions: time 6-8 hrs.
For series [19], the system named is MCF7. The series is described as follows: Induction of autophagic flux in wild type human MCF7 cells assessed as increase in p62 protein level at 10 uM incubated for 4 hrs in the presence of bafilomycin A1 by Western blotting analysis. The format is functional, cell-based.
For series [20], the system named is HEK293. The series is described as follows: Induction of autophagy in HEK293 cells assessed as increase in LC3-II protein level incubated for 4 hrs by Western blotting analysis. The format is functional, cell-based. As to conditions: Homo sapiens, dose 0.5-10 µM.
The subject of series [21] is MCF7. The series is described as follows: Induction of autophagy in human MCF7 cells assessed as p62/GAPDH ratio (reference value: 1.20). The format is functional.
Series [22] has as its system MCF7. The series is described as follows: Inhibition of autophagy in human MCF7 cells assessed as increase in p62 protein level incubated for 4 hrs by Western blotting analysis. Type of series: functional, cell-based. As to conditions: dose 0.1-2 µM.
The subject of series [23] is MCF7. The series is described as follows: Inhibition of autophagy in human MCF7 cells assessed as increase in LC3-I protein level incubated for 4 hrs by Western blotting analysis. The format is functional, cell-based. As to conditions: dose 0.1-2 µM.
Series [24] relates to MCF7. Briefly: Inhibition of autophagy in human MCF7 cells assessed as increase in LC3-II protein level incubated for 4 hrs by Western blotting analysis. As to conditions: dose 0.1-2 µM. The format is functional, cell-based.
Series [25] has as its system HEK293. The series is described as follows: Inhibition of autophagy in HEK293 cells assessed as increase in LC3-I protein level incubated for 4 hrs by Western blotting analysis. The format is functional, cell-based. Conditions: Homo sapiens, dose 0.1-2 µM.
In series [26] the test system is HEK293. The series is described as follows: Inhibition of autophagy in HEK293 cells assessed as increase in p62 protein level incubated for 4 hrs by Western blotting analysis. Conditions: Homo sapiens, dose 0.1-2 µM. Type of series: functional, cell-based.
Series [27] relates to HEK293. Briefly: Inhibition of autophagy in HEK293 cells assessed as increase in LC3-II protein level incubated for 4 hrs by Western blotting analysis. The format is functional, cell-based. Conditions: Homo sapiens, dose 0.1-2 µM.

Calls of active or inactive are those of the source. No cut-off for these calls is given here.

On to `COc1c(C)c(O)c(C(=O)C(C)C)c(O)c1Cc1c(O)c(C(=O)C(C)C)c(O)c(C)c1OC`, for which the Activity result with HEK293 [1] is “Dose-dependent-effect”; in the series with MCF7 [3] it was “Dose-dependent-effect”; in series [5], “Toxic”; in the series with MCF7 [10], “Dose-dependent-effect”; with MCF7 [11] it was “Time-dependent-effect”; with MCF7 [12], “Active; Higher Activity Observed”. For the same compound, the figures for the Activity result in the series with L02, with BEAS-2B and with HEK293 [20] were “Toxic”, “Toxic” and “Dose-dependent-effect”, respectively. Moreover, the result with MCF7 [2], with MCF7 [4], in the series on MCF7 [6], with MCF7 [7], in the series on MCF7 [9] and with MCF7 [13] was Active. In addition, the outcome in the series with MCF7 [14], in the series with MCF7 [15], in the series with MCF7 [16], in the series on MCF7 [17] and with MCF7 [19] was Active. Also, in the series with MCF7 [8], the Ratio came to 0.73. In addition, the outcome in the series on MCF7 [18] was inactive.
Turning to `COc1c(C)c(O)c(C(=O)C(C)C)c(O)c1Cc1c(O)c(C(=O)C(C)(C)C)c(O)c(C)c1OC`, the Ratio in the series on MCF7 [21] is reported as 0.98. For the same compound, in the series on MCF7 [15], the result was Active.
On to `CCCCC(=O)c1c(O)c(C)c(OC)c(Cc2c(O)c(C(=O)CCCC)c(O)c(C)c2OC)c1O`, for which the Ratio with MCF7 [8] is on record as 0.86. For the same compound, in the series on MCF7 [15], the outcome was Active.
In the case of `COc1c(C)c(O)c(C(C)=O)c(O)c1Cc1c(O)c(C)c(O)c(C(=O)C(C)C)c1OC`, in the series with MCF7 [21], the Ratio turned out to be 0.71. For the same compound, the outcome with MCF7 [15] was Active.
As to `CCCCC(=O)c1c(O)c(C)c(O)c(Cc2c(O)c(C)c(O)c(C(=O)CCCC)c2OC)c1OC`, the Ratio in the series with MCF7 [8] worked out at 0.84. For the same compound, the result in the series on MCF7 [15] was Active.
Take `CCC(=O)c1c(O)c(C)c(OC)c(Cc2c(O)c(C(=O)C(C)C)c(O)c(C)c2OC)c1O`: in the series with MCF7 [21], the Ratio is 0.86. Also, in the series with MCF7 [15], the outcome was Active.
Take `COc1c(C)c(O)c(CC(C)C)c(O)c1Cc1c(O)c(CC(C)C)c(O)c(C)c1OC`: the Ratio in the series on MCF7 [8] is reported as 0.95.
Regarding `CCCCC(=O)c1c(O)c(C)c(OC)c(Cc2c(O)c(C(C)=O)c(O)c(C)c2OC)c1O`, in the series with MCF7 [21], the Ratio is listed as 0.85. Further, in the series on MCF7 [15], the outcome was Active.
Consider `COc1c(Cc2c(O)c(C)c(O)c(C(=O)C(C)C)c2OC)c(O)c(C)c(O)c1C(=O)C(C)C`, for which the Ratio in the series on MCF7 [8] is listed as 0.92.
On to `CCCCC(=O)c1c(O)c(C)c(OC)c(Cc2c(O)c(C)c(O)c(C(=O)CCCC)c2OC)c1O`, for which, in the series on MCF7 [21], the Ratio is 1.05.
For the compound `COc1c(C)c(O)c(C(C)=O)c(O)c1Cc1c(O)c(C(=O)C(C)C)c(O)c(C)c1OC`, in the series with MCF7 [21], the Ratio is listed as 0.84. Also, in the series with MCF7 [15], the result was Active.
With `COc1c(C)c(O)c(C(=O)C(C)C)c(O)c1Cc1c(O)c(C)c(O)c(C(=O)C(C)C)c1OC`, the Ratio in the series with MCF7 [21] worked out at 0.7. The outcome in the series on MCF7 [15] was Active.
Regarding `CCCCCc1c(O)c(C)c(OC)c(Cc2c(O)c(CCCCC)c(O)c(C)c2OC)c1O`, the Ratio with MCF7 [8] is given as 0.97.
Regarding `CCC(=O)c1c(O)c(Cc2c(O)c(C(=O)CC)c(O)c(C(=O)CC)c2O)c(O)c(C(=O)CC)c1O`, the inhibition entry in the series with MCF7 [22], in the series with MCF7 [23], in the series with MCF7 [24], in the series on HEK293 [25], in the series with HEK293 [26] and in the series on HEK293 [27] was “Dose-dependent-effect” each time.
In the case of `COc1c(C)c(O)c(C(=O)C(C)(C)C)c(O)c1Cc1c(O)c(C(=O)C(C)(C)C)c(O)c(C)c1OC`, the Ratio in the series with MCF7 [8] was 1.18.
`CCN(CC)CCCC(C)Nc1ccnc2cc(Cl)ccc12` (stereo unspecified): in the series on MCF7 [6], the outcome was Active. The outcome in the series with MCF7 [13] was inactive.

Values taken from ChEMBL document CHEMBL6153039, “Synthesis and structural modification of the natural product Ivesinol to discover novel autophagy activators” (Eur J Med Chem, 2025).
